Laboratory results published in PMC4821105 (Pharmacognosy Research, 2016).

Columns and labels:
[1] = molecular target: T1, PTP1B (Homo sapiens, UniProt P18031); assay: Protein tyrosine phosphatase 1B inhibitory activity; type: biochemical
T1 sequence (P18031 1-435): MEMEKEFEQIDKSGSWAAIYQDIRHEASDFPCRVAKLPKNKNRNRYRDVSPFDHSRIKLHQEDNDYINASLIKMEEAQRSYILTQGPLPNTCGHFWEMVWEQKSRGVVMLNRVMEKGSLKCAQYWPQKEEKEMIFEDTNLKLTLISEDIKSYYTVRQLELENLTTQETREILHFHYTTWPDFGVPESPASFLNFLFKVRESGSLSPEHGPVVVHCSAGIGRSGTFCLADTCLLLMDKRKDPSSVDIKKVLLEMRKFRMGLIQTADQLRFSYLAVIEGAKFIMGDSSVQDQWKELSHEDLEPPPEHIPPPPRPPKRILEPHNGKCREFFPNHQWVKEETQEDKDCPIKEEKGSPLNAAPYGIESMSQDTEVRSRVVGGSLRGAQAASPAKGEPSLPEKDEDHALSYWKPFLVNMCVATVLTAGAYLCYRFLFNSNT

[2] = molecular target: T2, TCPTP (Homo sapiens, UniProt P17706); assay: T-cell protein tyrosine phosphatase inhibitory activity; type: biochemical
T2 sequence (P17706 1-415): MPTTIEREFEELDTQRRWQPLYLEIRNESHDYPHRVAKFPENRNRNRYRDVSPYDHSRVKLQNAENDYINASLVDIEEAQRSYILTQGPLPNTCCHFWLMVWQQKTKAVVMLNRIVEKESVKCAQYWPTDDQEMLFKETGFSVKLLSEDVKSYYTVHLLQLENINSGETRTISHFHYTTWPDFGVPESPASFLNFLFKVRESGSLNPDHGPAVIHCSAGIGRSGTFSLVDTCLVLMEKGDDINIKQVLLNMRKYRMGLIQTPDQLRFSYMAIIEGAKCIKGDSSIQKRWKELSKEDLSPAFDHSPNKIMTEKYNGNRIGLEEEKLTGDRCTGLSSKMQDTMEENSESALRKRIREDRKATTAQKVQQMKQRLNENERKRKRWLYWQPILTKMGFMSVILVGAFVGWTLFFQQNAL

[3] = molecular target: T1, PTP1B; settings: previous study of 28 medicinal plants; cited from earlier work

IC50 [1]	inhibition at 10 µg/mL ([1]; read-out: PTP1B inhibited activity (%), 10 μg/mL, mean of triplicate)	IC50 [2]	PTP1B (IC50, μg/mL) ([1]; pNPP 2 mM, 37°C, 30 min)	SMILES	PTP1B IC50 (previous screening of Indonesian herbal medicines) [3]
3.28 µM	98%	5.25 µM		C=C(C)[C@@H]1CC[C@]2(C(=O)O)CC[C@]3(C)[C@H](CC[C@@H]4[C@@]5(C)CC[C@H](O)C(C)(C)[C@@H]5CC[C@]43C)[C@@H]12 [Compound 1, Betulinic acid]	
		6.79 µM		C[C@H]1[C@H](C)CC[C@]2(C(=O)O)CC[C@]3(C)C(=CC[C@@H]4[C@@]5(C)CC[C@H](O)C(C)(C)[C@@H]5CC[C@]43C)[C@H]12 [Compound 2, ursolic acid]	
			2.05 µg/mL	CCCCCCCCCCCCCCCC(=O)C1=C(O)C(CO)OC1=O (stereo not drawn) [RK-682, reference compound]	2.05 µg/mL
